# Data reported in patent US7973219B2, “Method for producing transgenic plants resistant to weed control compounds which disrupt the porphyrin pathways of plants” (Sumitomo Chemical Company, Limited, priority 1998, dated 2011).
# What was measured:
# [1] = system: E. coli BT3/pACYCSP+pRASSL8 strain; assay: Growth of E. coli BT3/pACYCSP+pRASSL8 with herbicidal compound; type: cell-based, Escherichia coli; details: 1 ppm, 18 hours culture, Table 16
# Source text: According to the description of Gibson, L. C. D. et al., Proc. Natl. Acad. Sci. USA, 92; p 1941 (1995), the DNA fragment containing bchH gene prepared in Example 1 was digested with the restriction enzymes NdeI and BglII. The resultant DNA fragment was inserted between NdeI restriction site and BamHI restriction site of expression vector pET11a (manufactured by Stratagene) to obtain plasmid pETBCH (FIG. 1). This plasmid pETBCH was introduced into E. coli BL21(DE3) strain competent cells (manufactured by Stratagene) according to the manual attached to the competent cells to obtain E. coli BL21(DE3)/pETBCH strain. […] When the absorbance at 600 nm of the liquid culture medium became about 0.6, isopropyl β-D-thiogalactopyranoside (IPTG) was added to the liquid culture medium so that the final concentration was 0.4 mM, and the culture was continued for about additional 20 hours. […]
# These E. coli strains were inoculated into YPT medium containing 1 ppm of the PPO inhibitory-type herbicidal compound represented by Structure 8, 100 μg/ml ampicillin, 15 μg/ml chloramphenicol, 10 μg/ml kanamycin, 10 μg/ml hemin and 50 μg/ml aminolevulinic acid, cultured under dark conditions or light conditions according to the same manner as in Example 2. Then, 18 hours after initiation of culture, the absorbance of the liquid culture medium was measured at 600 nm. […]
# [2] = system: E. coli BT3/pACYCSP+pTVHVF1 strain; assay: Growth of E. coli BT3/pACYCSP+pTVHVF1 (variant barley ferrochelatase) with herbicidal compound; type: cell-based, Escherichia coli; details: 18 hours culture, Table 11
# Source text: According to the description of Gibson, L. C. D. et al., Proc. Natl. Acad. Sci. USA, 92; p 1941 (1995), the DNA fragment containing bchH gene prepared in Example 1 was digested with the restriction enzymes NdeI and BglII. The resultant DNA fragment was inserted between NdeI restriction site and BamHI restriction site of expression vector pET11a (manufactured by Stratagene) to obtain plasmid pETBCH (FIG. 1). This plasmid pETBCH was introduced into E. coli BL21(DE3) strain competent cells (manufactured by Stratagene) according to the manual attached to the competent cells to obtain E. coli BL21(DE3)/pETBCH strain. The strain was inoculated into 1.5 ml LB liquid culture medium (1% tryptone, 0.5% yeast extract, 0.5% NaCl) containing 100 μg/ml ampicillin in a tube (14×10 mm), and the tube was covered with aluminum foil (hereinafter referred to as dark conditions), cultured with shaking at 37° C. under light of fluorescent lamp (about 8000 lux). When the absorbance at 600 nm of the liquid culture medium became about 0.6, isopropyl β-D-thiogalactopyranoside (IPTG) was added to the liquid culture medium so that the final concentration was 0.4 mM, and the culture was continued for about additional 20 hours. […] In contrast to this, when E. coli BL21(DE3)/pETBCH strain was cultured according to the same manner (with IPTG) except that the tube was not covered with aluminum foil (hereinafter referred to as light conditions), E. coli grew and turned red as above.
# A plasmid bearing barley ferrochelatase gene was prepared by the method described in Miyamoto. K. et al. Plant Physiol. 105; p 769 (1994). The resultant plasmid was digested with restriction enzymes NspI and EcoRI to obtain the DNA fragment containing the gene encoding barley ferrochelatase whose signal sequence had been deleted (hereinafter referred to as the variant barley ferrochelatase). This DNA fragment was inserted between SphI restriction site and EcoRI restriction site of plasmid pTV119N (manufactured by Takara Shuzo Co., Ltd.) to construct plasmid pTVHVF1 (FIG. 12). […]
# These E. coli strains were inoculated into YPT medium containing 10 or 1 ppm of the PPO inhibitory-type herbicidal compound represented by Structure 8, 100 μg/ml ampicillin, 15 μg/ml chloramphenicol, 10 μg/ml kanamycin, 10 μg/ml hemin and 50 μg/ml aminolevulinic acid, cultured under dark conditions or light conditions according to the same manner as in Example 2. Then, 18 hours after initiation of culture, the absorbance of liquid culture medium was measured at 600 nm. By taking the absorbance of the medium without the herbicidal compound as 1, the relative value of the absorbance of the medium containing the herbicidal compound was calculated.
smiles,measurement,setting,value
C#CCOc1cc(N2C(=O)C3=C(CCCC3)C2=O)c(F)cc1Cl [Structure 8],Relative absorbance,[1]; in the dark,1.0
same,Relative absorbance,[1]; in the light,0.79
same,Relative absorbance,"[2]; in the dark, 1 ppm",0.96
same,Relative absorbance,"[2]; in the dark, 10 ppm",0.94
same,Relative absorbance,"[2]; in the light, 1 ppm",0.94
same,Relative absorbance,"[2]; in the light, 10 ppm",0.39
